From patent US8834841B2, “Imaging agents” (priority 2005, dated 2014)

Key:
Assay type in all cases: in vivo
[1] = system: DU145 Prostate Tumor Cells Implanted SC in SCID Mice; test: tissue distribution, DU145 tumor-bearing SCID mice
Protocol: (§1) For the in vitro amino acid uptake studies, all cells can be grown to monolayer confluency in T-175 culture flasks [Corning, Corning, N.Y.] (approx. 1×10^8 cells/flask) in Dulbecco's Modified Eagle's Medium (DMEM) [Sigma, St. Louis, Mo.] in a humidified incubator (37° C., 5% CO2/95% air). Media are supplemented with 10% fetal calf serum [Hyclone, Logan, Utah], and antibiotics (10,000 U/ml penicillin and 10 mg/ml streptomycin) (Sigma, St. Louis, Mo.). For tissue culture passage, monolayer cells are detached by gentle trypsinization, resuspended in complete media, and split 1:10 into new T-flasks. Cultures are passaged weekly, and fed fresh media every 2 to 3 days. To initiate tumor growth in SCID mice, 1×10^6 cells are injected s.c. bilaterally into the flanks (inguinal region) of the recipient animals using a 1 ml syringe with a 27 gauge needle. Ex vivo experiments can be performed with animals containing tumors weighing between 500 mg and 1 g, as estimated by caliper measurement (tumor weight=(π/6)*abc, where a, b and c are the tumor length, width and height, respectively). The compounds of the invention are further evaluated for their tumor specificity and selectivity in tumor-bearing animal models. One can evaluate and compare the transport, accumulation and tissue distribution of each compound in these in vivo animal studies. Tissue distribution of the compounds is measured in SCID mice (average weight, 20-25 g) bearing human tumors as follows. The candidate radioligands (20 uCi in 0.4 ml 0.9% NaCl) are injected into the tail vein of tumor-bearing mice. […] Tissues (blood, heart, liver, lungs, kidneys, bone, thyroid, muscle, brain and tumor) are excised, rinsed in saline, and blotted dry. The tissues are weighed, placed into 12×75 mm glass vials, the radioactivity determined with a gamma counter, and the percent dose/gram calculated. Total activities of blood and muscle are calculated by assuming that they account for 7% and 40% of the total body mass, respectively.

[2] = system: A549 Lung Tumor Cells Implanted SC in SCID Mice; test: tissue distribution, A549 tumor-bearing SCID mice
Protocol: as §1

[3] = system: U87 Glioma Tumor Cells Implanted SC in SCID Mice; test: tissue distribution, U87 tumor-bearing SCID mice
Protocol: as §1

NC1(C(=O)O)CCC1[18F] [Anti-R,S 2-[^18F]FACBC, (R,S) anti-1-amino-2-[^18F]fluorocyclobutyl-1-carboxylic acid]
% Dose/g blood ([1]; 15 Minutes): 2.79 % Dose/g | % Dose/g bone ([1]; 15 Minutes): 1.05 % Dose/g | % Dose/g brain ([1]; 15 Minutes): 0.16 % Dose/g | % Dose/g heart ([1]; 15 Minutes): 2.07 % Dose/g | % Dose/g kidney ([1]; 15 Minutes): 6.81 % Dose/g | % Dose/g liver ([1]; 15 Minutes): 2.32 % Dose/g | % Dose/g lung ([1]; 15 Minutes): 3.35 % Dose/g | % Dose/g muscle ([1]; 15 Minutes): 0.83 % Dose/g | % Dose/g pancreas ([1]; 15 Minutes): 29.02 % Dose/g | % Dose/g spleen ([1]; 15 Minutes): 4.37 % Dose/g | % Dose/g tumor ([1]; 15 Minutes): 2.94 % Dose/g | % Dose/g blood ([1]; 30 Minutes): 1.85 % Dose/g | % Dose/g bone ([1]; 30 Minutes): 1.62 % Dose/g | % Dose/g brain ([1]; 30 Minutes): 0.16 % Dose/g | % Dose/g heart ([1]; 30 Minutes): 1.82 % Dose/g | % Dose/g kidney ([1]; 30 Minutes): 4.47 % Dose/g | % Dose/g liver ([1]; 30 Minutes): 2.08 % Dose/g | % Dose/g lung ([1]; 30 Minutes): 2.31 % Dose/g | % Dose/g muscle ([1]; 30 Minutes): 0.99 % Dose/g | % Dose/g pancreas ([1]; 30 Minutes): 29.29 % Dose/g | % Dose/g spleen ([1]; 30 Minutes): 4.74 % Dose/g | % Dose/g tumor ([1]; 30 Minutes): 3.54 % Dose/g | % Dose/g blood ([1]; 60 Minutes): 0.80 % Dose/g | % Dose/g bone ([1]; 60 Minutes): 2.22 % Dose/g | % Dose/g brain ([1]; 60 Minutes): 0.17 % Dose/g | % Dose/g heart ([1]; 60 Minutes): 1.32 % Dose/g | % Dose/g kidney ([1]; 60 Minutes): 1.82 % Dose/g | % Dose/g liver ([1]; 60 Minutes): 1.22 % Dose/g | % Dose/g lung ([1]; 60 Minutes): 1.18 % Dose/g | % Dose/g muscle ([1]; 60 Minutes): 1.15 % Dose/g | % Dose/g pancreas ([1]; 60 Minutes): 15.00 % Dose/g | % Dose/g spleen ([1]; 60 Minutes): 2.84 % Dose/g | % Dose/g tumor ([1]; 60 Minutes): 2.56 % Dose/g | % Dose/g blood ([1]; 120 Minutes): 0.38 % Dose/g | % Dose/g bone ([1]; 120 Minutes): 0.65 % Dose/g | % Dose/g brain ([1]; 120 Minutes): 0.12 % Dose/g | % Dose/g heart ([1]; 120 Minutes): 0.82 % Dose/g | % Dose/g kidney ([1]; 120 Minutes): 0.78 % Dose/g | % Dose/g liver ([1]; 120 Minutes): 0.42 % Dose/g | % Dose/g lung ([1]; 120 Minutes): 0.45 % Dose/g | % Dose/g muscle ([1]; 120 Minutes): 0.71 % Dose/g | % Dose/g pancreas ([1]; 120 Minutes): 5.92 % Dose/g | % Dose/g spleen ([1]; 120 Minutes): 0.87 % Dose/g | % Dose/g tumor ([1]; 120 Minutes): 1.84 % Dose/g | % Dose/g blood ([2]; 15 Minutes): 3.39 % Dose/g | % Dose/g bone ([2]; 15 Minutes): 2.06 % Dose/g | % Dose/g brain ([2]; 15 Minutes): 0.26 % Dose/g | % Dose/g heart ([2]; 15 Minutes): 2.70 % Dose/g | % Dose/g kidney ([2]; 15 Minutes): 10.11 % Dose/g | % Dose/g liver ([2]; 15 Minutes): 3.15 % Dose/g | % Dose/g lung ([2]; 15 Minutes): 4.23 % Dose/g | % Dose/g muscle ([2]; 15 Minutes): 1.38 % Dose/g | % Dose/g pancreas ([2]; 15 Minutes): 48.45 % Dose/g | % Dose/g spleen ([2]; 15 Minutes): 7.90 % Dose/g | % Dose/g tumor ([2]; 15 Minutes): 5.11 % Dose/g | % Dose/g blood ([2]; 30 Minutes): 2.42 % Dose/g | % Dose/g bone ([2]; 30 Minutes): 1.63 % Dose/g | % Dose/g brain ([2]; 30 Minutes): 0.25 % Dose/g | % Dose/g heart ([2]; 30 Minutes): 2.23 % Dose/g | % Dose/g kidney ([2]; 30 Minutes): 5.47 % Dose/g | % Dose/g liver ([2]; 30 Minutes): 2.70 % Dose/g | % Dose/g lung ([2]; 30 Minutes): 3.03 % Dose/g | % Dose/g muscle ([2]; 30 Minutes): 1.43 % Dose/g | % Dose/g pancreas ([2]; 30 Minutes): 44.17 % Dose/g | % Dose/g spleen ([2]; 30 Minutes): 5.02 % Dose/g | % Dose/g tumor ([2]; 30 Minutes): 4.28 % Dose/g | % Dose/g blood ([2]; 60 Minutes): 1.08 % Dose/g | % Dose/g bone ([2]; 60 Minutes): 1.01 % Dose/g | % Dose/g brain ([2]; 60 Minutes): 0.16 % Dose/g | % Dose/g heart ([2]; 60 Minutes): 1.41 % Dose/g | % Dose/g kidney ([2]; 60 Minutes): 2.24 % Dose/g | % Dose/g liver ([2]; 60 Minutes): 1.46 % Dose/g | % Dose/g lung ([2]; 60 Minutes): 1.40 % Dose/g | % Dose/g muscle ([2]; 60 Minutes): 0.90 % Dose/g | % Dose/g pancreas ([2]; 60 Minutes): 20.63 % Dose/g | % Dose/g spleen ([2]; 60 Minutes): 2.85 % Dose/g | % Dose/g tumor ([2]; 60 Minutes): 3.04 % Dose/g | % Dose/g blood ([2]; 120 Minutes): 0.40 % Dose/g | % Dose/g bone ([2]; 120 Minutes): 0.62 % Dose/g | % Dose/g brain ([2]; 120 Minutes): 0.14 % Dose/g | % Dose/g heart ([2]; 120 Minutes): 0.85 % Dose/g | % Dose/g kidney ([2]; 120 Minutes): 1.02 % Dose/g | % Dose/g liver ([2]; 120 Minutes): 0.58 % Dose/g | % Dose/g lung ([2]; 120 Minutes): 0.56 % Dose/g | % Dose/g muscle ([2]; 120 Minutes): 0.77 % Dose/g | % Dose/g pancreas ([2]; 120 Minutes): 9.80 % Dose/g | % Dose/g spleen ([2]; 120 Minutes): 1.48 % Dose/g | % Dose/g tumor ([2]; 120 Minutes): 2.30 % Dose/g | % Dose/g blood ([3]; 15 Minutes): 3.50 % Dose/g | % Dose/g bone ([3]; 15 Minutes): 2.10 % Dose/g | % Dose/g brain ([3]; 15 Minutes): 0.28 % Dose/g | % Dose/g heart ([3]; 15 Minutes): 2.59 % Dose/g | % Dose/g kidney ([3]; 15 Minutes): 9.21 % Dose/g | % Dose/g liver ([3]; 15 Minutes): 3.43 % Dose/g | % Dose/g lung ([3]; 15 Minutes): 4.08 % Dose/g | % Dose/g muscle ([3]; 15 Minutes): 1.45 % Dose/g | % Dose/g pancreas ([3]; 15 Minutes): 49.78 % Dose/g | % Dose/g spleen ([3]; 15 Minutes): 6.63 % Dose/g | % Dose/g tumor ([3]; 15 Minutes): 6.48 % Dose/g | % Dose/g blood ([3]; 30 Minutes): 2.17 % Dose/g | % Dose/g bone ([3]; 30 Minutes): 1.66 % Dose/g | % Dose/g brain ([3]; 30 Minutes): 0.22 % Dose/g | % Dose/g heart ([3]; 30 Minutes): 2.00 % Dose/g | % Dose/g kidney ([3]; 30 Minutes): 5.08 % Dose/g | % Dose/g liver ([3]; 30 Minutes): 2.58 % Dose/g | % Dose/g lung ([3]; 30 Minutes): 2.82 % Dose/g | % Dose/g muscle ([3]; 30 Minutes): 1.12 % Dose/g | % Dose/g pancreas ([3]; 30 Minutes): 41.30 % Dose/g | % Dose/g spleen ([3]; 30 Minutes): 5.11 % Dose/g | % Dose/g tumor ([3]; 30 Minutes): 5.44 % Dose/g | % Dose/g blood ([3]; 60 Minutes): 0.81 % Dose/g | % Dose/g bone ([3]; 60 Minutes): 1.21 % Dose/g | % Dose/g brain ([3]; 60 Minutes): 0.17 % Dose/g | % Dose/g heart ([3]; 60 Minutes): 1.13 % Dose/g | % Dose/g kidney ([3]; 60 Minutes): 2.00 % Dose/g | % Dose/g liver ([3]; 60 Minutes): 1.22 % Dose/g | % Dose/g lung ([3]; 60 Minutes): 1.15 % Dose/g | % Dose/g muscle ([3]; 60 Minutes): 1.10 % Dose/g | % Dose/g pancreas ([3]; 60 Minutes): 17.78 % Dose/g | % Dose/g spleen ([3]; 60 Minutes): 3.02 % Dose/g | % Dose/g tumor ([3]; 60 Minutes): 3.61 % Dose/g | % Dose/g blood ([3]; 120 Minutes): 0.46 % Dose/g | % Dose/g bone ([3]; 120 Minutes): 1.20 % Dose/g | % Dose/g brain ([3]; 120 Minutes): 0.16 % Dose/g | % Dose/g heart ([3]; 120 Minutes): 0.89 % Dose/g | % Dose/g kidney ([3]; 120 Minutes): 1.10 % Dose/g | % Dose/g liver ([3]; 120 Minutes): 0.75 % Dose/g | % Dose/g lung ([3]; 120 Minutes): 0.64 % Dose/g | % Dose/g muscle ([3]; 120 Minutes): 0.99 % Dose/g | % Dose/g pancreas ([3]; 120 Minutes): 10.20 % Dose/g | % Dose/g spleen ([3]; 120 Minutes): 1.48 % Dose/g | % Dose/g tumor ([3]; 120 Minutes): 2.73 % Dose/g
